In patent US8445409B2, “Use of 5-benzyloxymethyl-1,2-isoxazoline derivatives as a herbicide” (Moghu Research Center Ltd., priority 2007, dated 2013):
Entries after “also recorded” stand apart in the source; their conditions may differ.

How the values were obtained:
[1] = tested on: broadleaf weeds such as common cocklebur, Indian joint-vetch, velvetleaf, morningglory; assay: Upland pot test, broadleaf weeds as a group; type: in vivo
Source text: (§1) To a rectangular plastic pot having a surface area of 300 cm^2, mixed soils including blend bed soil (Boonong, Horticultural Bed Soil No. 3) and sandy loam soil were filled (mixing ratio, 1:1). Seeds of the eight different types of weeds including gramineous weed such as barnyardgrass, large crabgrass, green foxtail, fall panicum, and broadleaf weed such as common cocklebur, velvetleaf, Indian joint-vetch, and morningglory were sown. To the other pot containing the same soil mixture, seeds of the five different types of crops including corn, soybean, cotton, wheat and rice were sown. Pots were kept in a greenhouse of which temperature was maintained at 25˜30° C. (day) or 15˜25° C. (night), and regularly watered.
(§2) After fourteen days and when the crops and the weeds reached their three-leaf stage, the other set of a crop pot and a weed pot were prepared by the same method as described above. Then, “test substance” was sprayed thereto. In this case, spray treatment to the plants after they have grown for two weeks corresponded to post-emergence treatment while spray treatment to the seeds right after the sowing corresponded to pre-emergence treatment. Spray was carried out by using a track sprayer (R&D Sprayer, USA) equipped with a Teejet 8002 nozzle (Spraying Systems Co., USA). Spray volume was adjusted to 300 L/ha. The spray solution was prepared by dissolving the “test substance” in acetone and adding the same volume of 0.2% (v/v) Tween 20 aqueous solution. Dosage of the test substance was 500, 250, 125, 62.5 or 31.3 g/ha. Two weeks after the spray of the test substance, efficacy and phytotoxic effect to the crops and the weeds were visually measured based on a 0 to 10 scale (0: no efficacy, 10: completely killed).

[2] = tested on: Large crabgrass; assay: Herbicidal activity at different growth stages, fresh weight suppression; type: in vivo; settings: for Suppression ratio relative to the biomass of the untreated group: Large crabgrass 1 leaf / Suppression ratio relative to the biomass of the untreated group: Large crabgrass 2 leaf / Suppression ratio relative to the biomass of the untreated group: Large crabgrass 3 leaf / Suppression ratio relative to the biomass of the untreated group: Large crabgrass 4 leaf / Suppression ratio relative to the biomass of the untreated group: Large crabgrass PRE: fresh weight two weeks after treatment
Protocol: To a cup pot having a surface area of 100 cm^2 wherein mixed soils including blend bed soil (Boonong, Horticultural Bed Soil No. 3) and sandy loam soil were filled (mixing ratio, 1:1), seeds of large crabgrass and annual bluegrass were sown consecutively at an one week interval. The pots were moistened by sub-irrigation, and kept in a greenhouse maintained at 25˜30° C. (day) or 15˜25° C. (night). The said weeds were grown to various growth stages from pre-emergence to the four-leaf stage. Then, they were applied with the test substance of the present invention at dosage of 2, 1, 0.5, or 0.25 kg/ha. As a reference herbicide, Dithiopyr (32% EC, manufactured by Dongbu Hannong Chemical Company), was applied at 0.96, 0.48, or 0.24 kg/ha. Spray volume was adjusted to 2,000 L/ha. The method to spray of the test substance and prepare spray solutions were the same as described above. The reference herbicide was used after it was diluted with 0.2% (v/v) Tween 20 aqueous solution. The test was conducted in a randomized block design with three replicates. Two weeks after the treatment, plant parts remained above the pot soil surface were cut and the fresh weight was weighed. Results are given by a suppression ratio relative to the biomass that was obtained from the untreated group (see, Table 3).

[3] = tested on: Fall panicum; assay: Upland pot test, pre-/post-emergence spray, visual rating; type: in vivo, fall panicum (PANDI); settings: 2 weeks after spray, 0-10 scale (10=completely killed)
Source text: as §1, §2

[4] = tested on: Cocklebur; assay: as above; type: in vivo, common cocklebur (XANST); settings: 2 weeks after spray, 0-10 scale (10=completely killed)
Source text: as §1, §2

[5] = tested on: Bentgrass; assay: Turfgrass safety test (sod mat pots), visual phytotoxicity; type: in vivo; settings: in vivo
Source text: (§3) Commercially available sod mats of zoysiagrass and bentgrass, Kentucky bluegrass, and perennial ryegrass were purchased. After cutting each turf sod mat in a size of 10 cm×20 cm, it was transplanted to a rectangular plastic pot having a surface area of 300 cm^2 wherein mixed soils including blend of a bed soil (Boonong, Horticultural Nursery Soil No. 3) and sandy loam soil were filled (mixing ratio, 1:1). After transplanting, the grass was mowed (0.5˜1.0 cm in height) once a week, and kept for one month in a greenhouse maintained at 25˜30° C. (day) or 15˜25° C. (night), then the test substance of the present invention was applied at dosage of 4, 2, 1 and 0.5 kg/ha. As a reference, Dithiopyr (32% EC, manufactured by Dongbu Hannong Chemical Company, KOREA) was applied at the recommended rate of 0.48 kg/ha, or twice or quadruple amount thereof, i.e., 0.96 and 1.92 kg/ha, respectively. Spray was made by a track sprayer equipped with a Teejet 8002 nozzle. Spray volume was adjusted to 2,000 L/ha, which was a typical value for an Asian (Korea and Japan) golf course. The spray solution was prepared by dissolving the “test substance” in acetone and adding the same volume of 0.2% (v/v) Tween 20 aqueous solution. Two, four or six weeks after the spray of the test substance, phytotoxicity to the turfgrass were visually evaluated based on 0 to 10 scale (0: no phytotoxic effect, 10: completely killed). The test was conducted in a randomized block design with a three replicates and the results were summarized in the following Table 2 is an average value of the replicates.

[6] = tested on: Kentucky bluegrass; assay: as above; type: in vivo; settings: in vivo
Source text: as §3

[7] = tested on: Perennial ryegrass; assay: as above; type: in vivo; settings: in vivo
Source text: as §3

[8] = post-emergence foliar spray at three leaf stage, 31.2 g/ha
[9] = post-emergence foliar spray at three leaf stage, 62.5 g/ha
[10] = post-emergence foliar spray at three leaf stage, 125 g/ha
[11] = post-emergence foliar spray at three leaf stage, 250 g/ha
[12] = post-emergence foliar spray at three leaf stage, 500 g/ha
[13] = pre-emergence soil treatment, 31.2 g/ha
[14] = pre-emergence soil treatment, 62.5 g/ha
[15] = pre-emergence soil treatment, 125 g/ha
[16] = pre-emergence soil treatment, 250 g/ha
[17] = pre-emergence soil treatment, 500 g/ha

In the case of Cc1ccsc1C1=NOC(C)(COCc2c(F)cccc2F)C1 (stereo not drawn) [test substance, 5-(2,6-difluorobenzyl)oxymethyl-5-methyl-3-(4-methylthiophen-5-yl)-1,2-isoxazoline], the “Control of broadleaf weeds (in words)” value ([1]; post-emergence application, 500 g/ha) is reported as “well controlled”, the “Control of broad-leaf weeds (in words)” value ([1]; post-emergence treatment at three-leaf stage, FIG. 2) is reported as “somewhat controlled showing a mild suppression effect” and the “Effect on broadleaf weeds (in words)” value ([1]; pre-emergence treatment, FIG. 1) is reported as “almost no effect; also recorded: not affected”. For the same compound, the “Suppression ratio relative to the biomass of the untreated group: Large crabgrass 1 leaf” value ([2]; 1 kg/ha) was 100%, the “Suppression ratio relative to the biomass of the untreated group: Large crabgrass 2 leaf” value ([2]; 1 kg/ha) was 98% and the “Suppression ratio relative to the biomass of the untreated group: Large crabgrass 3 leaf” value ([2]; 1 kg/ha) was 94%. The “Suppression ratio relative to the biomass of the untreated group: Large crabgrass 4 leaf” value ([2]; 1 kg/ha) was 70%, the “Suppression ratio relative to the biomass of the untreated group: Large crabgrass PRE” value ([2]; 1 kg/ha) was 100% and the “Suppression ratio relative to the biomass of the untreated group: Large crabgrass 1 leaf” value ([2]; 2 kg/ha) was 100%. For the same compound, the “Suppression ratio relative to the biomass of the untreated group: Large crabgrass 2 leaf” value ([2]; 2 kg/ha) was 98%, the “Suppression ratio relative to the biomass of the untreated group: Large crabgrass 3 leaf” value ([2]; 2 kg/ha) was 97% and the “Suppression ratio relative to the biomass of the untreated group: Large crabgrass 4 leaf” value ([2]; 2 kg/ha) was 76%. For the same compound, the “Suppression ratio relative to the biomass of the untreated group: Large crabgrass PRE” value ([2]; 2 kg/ha) was 100%, the “Suppression of large crabgrass” value ([2]; 3-leaf stage, 1 kg/ha or more) was no less than 90% and the “Suppression ratio relative to the biomass of the untreated group: Large crabgrass 2 leaf” value ([2]; .12 kg/ha) was 45%. The “Suppression ratio relative to the biomass of the untreated group: Large crabgrass 4 leaf” value ([2]; .12 kg/ha) was 16%, the “Suppression ratio relative to the biomass of the untreated group: Large crabgrass 1 leaf” value ([2]; .25 kg/ha) was 100% and the “Suppression ratio relative to the biomass of the untreated group: Large crabgrass 2 leaf” value ([2]; .25 kg/ha) was 81%. The “Suppression ratio relative to the biomass of the untreated group: Large crabgrass 3 leaf” value ([2]; .25 kg/ha) was 72%, the “Suppression ratio relative to the biomass of the untreated group: Large crabgrass 4 leaf” value ([2]; .25 kg/ha) was 33% and the “Suppression ratio relative to the biomass of the untreated group: Large crabgrass PRE” value ([2]; .25 kg/ha) was 100%. The “Suppression ratio relative to the biomass of the untreated group: Large crabgrass 1 leaf” value ([2]; .5 kg/ha) was 100%, the “Suppression ratio relative to the biomass of the untreated group: Large crabgrass 2 leaf” value ([2]; .5 kg/ha) was 93% and the “Suppression ratio relative to the biomass of the untreated group: Large crabgrass 3 leaf” value ([2]; .5 kg/ha) was 86%. The “Suppression ratio relative to the biomass of the untreated group: Large crabgrass 4 leaf” value ([2]; .5 kg/ha) was 65%, the “Suppression ratio relative to the biomass of the untreated group: Large crabgrass PRE” value ([2]; .5 kg/ha) was 100% and the “Suppression of large crabgrass” value ([2]; PRE to 2-leaf stage, 0.5 kg/ha or above) was no less than 90%. The “Control of large crabgrass (in words)” value ([2]; over four-leaf stage) was “suppressed but were not completely controlled”, the “Visual measurement: Gramineous weed, Fall panicum” value (shortened to “Visual measurement … Fall panicum”) [3, 8] was 0 and the “Visual measurement … Fall panicum” value [3, 9] was 1. For the same compound, the “Visual measurement … Fall panicum” value [3, 10] was 3, the “Visual measurement … Fall panicum” value [3, 11] was 6 and the “Visual measurement … Fall panicum” value [3, 12] was 8. The “Visual measurement … Fall panicum” value [3, 13] was 5, the “Visual measurement … Fall panicum” value [3, 14] was 8 and the “Visual measurement … Fall panicum” value [3, 15] was 9. The “Visual measurement … Fall panicum” value [3, 16] was 9, the “Visual measurement … Fall panicum” value [3, 17] was 10 and the “Visual measurement: Broadleaf weed, Cocklebur” value (“Visual measurement … Cocklebur” below) [4, 8] was 0. For the same compound, the “Visual measurement … Cocklebur” value [4, 9] was 0, the “Visual measurement … Cocklebur” value [4, 10] was 1 and the “Visual measurement … Cocklebur” value [4, 11] was 3. For the same compound, the “Visual measurement … Cocklebur” value [4, 12] was 7, the “Visual measurement … Cocklebur” value [4, 13] was 0 and the “Visual measurement … Cocklebur” value [4, 14] was 0. The “Visual measurement … Cocklebur” value [4, 15] was 0, the “Visual measurement … Cocklebur” value [4, 16] was 0 and the “Visual measurement … Cocklebur” value [4, 17] was 0. The “Phytotoxic effect, visual assessment: Bentgrass Week 2” value [5] was 2.3, the “Phytotoxic effect, visual assessment: Bentgrass Week 4” value [5] was 3.0 and the “Phytotoxic effect, visual assessment: Kentucky bluegrass Week 6” value ([6]; Kentucky bluegrass, 6 weeks) was 0.0. The “Phytotoxic effect, visual assessment: Kentucky bluegrass Week 6” value [6] was 1.0, the “Safety to Kentucky bluegrass (in words)” value [6] was “safe” and the “Phytotoxic effect, visual assessment: Perennial ryegrass Week 2” value [7] was 3.0. The “Phytotoxic effect, visual assessment: Perennial ryegrass Week 4” value [7] was 2.7, the “Phytotoxic effect, visual assessment: Perennial ryegrass Week 6” value [7] was 2.0 and the “Safety to perennial ryegrass (in words)” value [7] was “safe”.
